The target in one test is KCNQ1 (Homo sapiens, UniProt P51787). The test can be described thus: TEVC of homomeric KCNQ1 expressed in Xenopus oocytes. The class given is cell-based.
In the next test the target is KCNQ2-W236L/KCNQ3-W265L (Homo sapiens, UniProt O43525+O43526, W236L/W265L). The test can be described thus: TEVC of double-mutant WL/WL KCNQ2/3 channels. The class given is cell-based. From the text:
cRNA transcripts encoding human KCNA1, KCNQ1, KCNQ2, KCNQ3, KCNQ4, or KCNQ5 were generated by in vitro transcription using the T7 polymerase message machine kit (Thermo Fisher Scientific), after vector linearization, from cDNA sub-cloned into plasmids incorporating X. laevis β-globin 5′ and 3′ UTRs flanking the coding region to enhance translation and cRNA stability. cRNA was quantified by spectrophotometry. Mutant cDNAs were generated by site-directed mutagenesis using a QuikChange kit according to manufacturer's protocol (Stratagene, San Diego, Calif.) and corresponding cRNAs prepared as above. Defolliculated stage V and VI X. laevis oocytes (Ecocyte Bioscience, Austin, Tex.) were injected with Kv channel a subunit cRNAs (10 ng total per oocyte). Oocytes were incubated at 16° C. in Barth's saline solution (Ecocyte) containing penicillin and streptomycin, with daily washing, for 3-5 days prior to two-electrode voltage-clamp (TEVC) recording.
TEVC recording was performed at room temperature with an OC-725C amplifier (Warner Instruments, Hamden, Conn.) and pClamp10.2 software (Molecular Devices, Sunnyvale, Calif.) 3-5 days after cRNA injection as described in the section above. Oocytes were placed in a small-volume oocyte bath (Warner) and viewed with a dissection microscope. Chemicals were sourced from Sigma. Bath solution was (in mM): 96 NaCl, 4 KCl, 1 MgCl2, 1 CaCl2. 10 HEPES (pH 7.6). […] Currents were recorded in response to pulses between −80 and +40 mV at 20 mV intervals, or a single pulse to +40 mV, from a holding potential of −80 mV, to yield current-voltage relationships, current magnitude, and for quantifying activation rate. […]
cRNA transcripts encoding human KCNQ2, KCNQ3, KCNQ4, KCNQ5 (Kv7.2-Kv7.5) were generated by in vitro transcription using the T7 polymerase mMessage mMachine kit (Thermo Fisher Scientific), after vector linearization, from cDNA sub-cloned into plasmids incorporating Xenopus laevis β-globin 5′ and 3′ UTRs flanking the coding region to enhance translation and cRNA stability. cRNA was quantified by spectrophotometry. […]

These results are taken from patent US12268683B2, “Compounds and methods for synergistic activation of M channels” (THE REGENTS OF THE UNIVERSITY OF CALIFORNIA, priority 2018, dated 2025).

Molecules are shown by their SMILES. Some results are limits rather than exact numbers.

Protocol for KCNQ1: Oocytes were placed in a small-volume oocyte bath (Warner) and viewed with a dissection microscope. Chemicals were sourced from Sigma. Bath solution was (in mM): 96 NaCl, 4 KCl, 1 MgCl2, 1 CaCl2. 10 HEPES (pH 7.6). […] MTX (DMSO), sorbic acid (ethanol), and glutaconic acid (molecular grade H2O) were stored at −20° C. as 1 M stocks. Oleamide was stored as a 1 mM stock in ethanol at 4° C. Palmitic acid was conjugated with bovine serum albumin as a 1 mM stock and stored at −20° C. All compounds were diluted to working concentrations each experimental day. All compounds were introduced to the recording bath via gravity perfusion at a constant flow of 1 ml/min for 3 min prior to recording. Pipettes were of 1-2 MΩ resistance when filled with 3 M KCl. Currents were recorded in response to pulses between −80 and +40 mV at 20 mV intervals, or a single pulse to +40 mV, from a holding potential of −80 mV, to yield current-voltage relationships, current magnitude, and for quantifying activation rate. […]

In the case of `CS(=O)(=O)N(CC(=O)O)c1cccc(F)c1` [3FMSG], the “effect on KCNQ1 (in words)” value on KCNQ1 is “negligible effects”.

As for `CCCCCCCCC/C=C/C=O` [(E)-2-dodecenal], at KCNQ1, the “effect on KCNQ1 (in words)” value is “sensitive”. On to `CC(=O)c1c(O)c(C)c(O)c(Cc2c(O)c3c(c(C(=O)/C=C/c4ccccc4)c2O)OC(C)(C)C=C3)c1O` [MTX, mallotoxin], for which the “reduction of MTX potency (negative shift in voltage dependence) by W/L mutation” value at KCNQ2-W236L/KCNQ3-W265L (KCNQ2-W236L or KCNQ3-W265L, or both) is “tenfold”. In the case of `NCC1(CC(=O)O)CCCCC1` [gabapentin, reference compound], on KCNQ2-W236L/KCNQ3-W265L, the “augmentation of WL/WL KCNQ2/3 current” value is recorded as ≤ 50%.
